Experimental data reported in PMC9814232, “Structural insights into the potency and selectivity of covalent pan-FGFR inhibitors” (Communications Chemistry, 2022).
Values belong to the compound of their own block, whether it stands above or below them.

Key:
[1] = test system: FGFR gatekeeper mutations; conditions: cited from earlier work
FGFR2(V564F) = molecular target: T1, FGFR2(V564F) (Homo sapiens, UniProt P21802, V564F); experiment: ADP-Glo kinase inhibition assay, FGFR2(V564F) gatekeeper mutant; assay type: biochemical
T1 construct: FGFR2 (residues 453−770); 6×His (N, cleaved yes); made in house; host or cells: E. coli BL21 (DE3), co-expressed with YOPH
T1 sequence (P21802 453-770 V564F): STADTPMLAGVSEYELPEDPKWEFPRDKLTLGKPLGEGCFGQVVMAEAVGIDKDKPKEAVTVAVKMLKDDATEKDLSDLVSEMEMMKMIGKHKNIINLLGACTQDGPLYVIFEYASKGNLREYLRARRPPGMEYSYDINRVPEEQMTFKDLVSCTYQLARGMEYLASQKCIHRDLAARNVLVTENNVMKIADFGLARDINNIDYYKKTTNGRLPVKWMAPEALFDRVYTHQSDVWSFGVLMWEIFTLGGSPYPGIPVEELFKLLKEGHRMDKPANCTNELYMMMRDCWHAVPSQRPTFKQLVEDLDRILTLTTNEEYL

FGFR4(V550L) = molecular target: T2, FGFR4(V550L) (Homo sapiens, UniProt P22455, V550L); experiment: ADP-Glo kinase inhibition assay, FGFR4(V550L) gatekeeper mutant; assay type: biochemical; conditions: for IC50: kinase activity, ADP-Glo, 10 μM ATP, n = 3
T2 construct: FGFR4 (residues 445−753); 6×His (N, cleaved yes); made in house; host or cells: E. coli BL21 (DE3), co-expressed with YOPH
T2 sequence (P22455 445-753 V550L): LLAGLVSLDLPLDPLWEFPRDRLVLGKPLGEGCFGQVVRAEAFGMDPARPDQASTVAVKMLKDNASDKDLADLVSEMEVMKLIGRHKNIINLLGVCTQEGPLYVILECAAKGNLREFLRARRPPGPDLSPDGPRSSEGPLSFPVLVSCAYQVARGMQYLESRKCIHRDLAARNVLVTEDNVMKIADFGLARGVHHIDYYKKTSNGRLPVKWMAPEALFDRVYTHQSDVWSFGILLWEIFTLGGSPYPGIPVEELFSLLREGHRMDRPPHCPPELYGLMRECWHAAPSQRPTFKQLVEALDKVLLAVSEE

FGFR1 = molecular target: T3, FGFR1 (Homo sapiens, UniProt P11362); experiment: ADP-Glo kinase inhibition assay, FGFR1; assay type: biochemical; conditions: kinase activity, 10 μM ATP, n = 3
T3 construct: human FGFR1 (residues 456−765); 6×His (N, cleaved yes); made in house; host or cells: E. coli BL21 (DE3), co-expressed with YOPH
T3 sequence (P11362 456-765): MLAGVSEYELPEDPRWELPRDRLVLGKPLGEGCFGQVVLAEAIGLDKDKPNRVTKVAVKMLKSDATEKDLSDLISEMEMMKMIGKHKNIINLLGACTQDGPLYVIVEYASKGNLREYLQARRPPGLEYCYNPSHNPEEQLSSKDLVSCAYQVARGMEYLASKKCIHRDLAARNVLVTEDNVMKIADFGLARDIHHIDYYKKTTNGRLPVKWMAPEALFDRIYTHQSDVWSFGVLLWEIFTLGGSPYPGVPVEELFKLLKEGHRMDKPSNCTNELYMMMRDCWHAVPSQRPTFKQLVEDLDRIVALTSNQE

SRC [2] = molecular target: T4, SRC (Gallus gallus, UniProt P00523); experiment: ADP-Glo kinase inhibition assay, SRC; assay type: biochemical, chicken; conditions: for IC50: kinase activity, ADP-Glo, 10 μM ATP, n = 3
T4 construct: chicken SRC (residues 251−533); 6×His (N, cleaved yes); made in house; host or cells: E. coli BL21 (DE3), co-expressed with YOPH
Experimental: (§1) FGFRs, SRC and HCK were prepared as previously described[31]–[33]. […] The primers were synthesized by Tsingke Biotechnolog Co., Ltd., and the sequences were listed in Supplementary Table 2. Then plasmid was transfected into E. coli BL21 (DE3) cells and co-expressed with YOPH to get the non-phosphorylated proteins. Cells were grown in LB at 37 °C and induced for 16 h with 0.5 mM IPTG at 18 °C. Cells were harvested by centrifugation for next purification. All steps of purification were performed at 4 °C. Proteins were first purified by Ni-NTA affinity chromatography, and then 6×His tag was removed by PreScission or TEV protease. […] Anion exchange chromatography (Mono Q) and size exclusion chromatography (SEC) were exploited for further purification. The purified FGFRs proteins were stored in the buffer containing 20 mM tris-HCl pH 8.0, 150 mM NaCl, and 1 mM TCEP, while SRC and HCK proteins in the buffer containing 20 mM tris-HCl pH 8.0, 150 mM NaCl, 5% (v/v) glycerol, and 1 mM TCEP. The purified proteins were concentrated to about 5–15 mg/mL and stored at −80 °C for subsequent studies.
(§2) The ADP-Glo^TM Kinase Assay Kit (Part No #V9101) was purchased from Promega. The experiments were performed according to the manufacturer’s instructions. All kinase inhibition assays were performed with optimized kinase assay buffer consisting of 40 mM Tris-HCl (pH ranging from 7.5 to 8.0), 20 mM MgCl2, 20 mM NaCl, 0.1 mg/mL BSA, 1 mM TCEP, and 4% DMSO[34]. […] Second, 5×ATP plus poly (4:1 Glu, Tyr) peptides (abcam, Part No #ab204877) were added to start the kinase reactions. The final reaction consisted of 0.04 μM kinase, 50 μM Tyr4 peptide and 10 μM ATP in kinase buffer. Then the reactions were terminated by the addition of stop buffer ADP-Glo after half an hour of incubation. […] Finally, […] was measured on a multimode plate reader (Perkin-Elmer) after the addition of detection reagent for half an hour to one hour. IC50 values were determined using a three-parameter log [Inhibitor] versus response model in GraphPad Prism software.

FGFR3(V555M) = molecular target: T5, FGFR3(V555M) (Homo sapiens, UniProt P22607, V555M); experiment: ADP-Glo kinase inhibition assay, FGFR3(V555M) gatekeeper mutant; assay type: biochemical
T5 construct: FGFR3 (residues 450−758); 6×His (N, cleaved yes); made in house; host or cells: E. coli BL21 (DE3), co-expressed with YOPH
T5 sequence (P22607 450-758 V555M): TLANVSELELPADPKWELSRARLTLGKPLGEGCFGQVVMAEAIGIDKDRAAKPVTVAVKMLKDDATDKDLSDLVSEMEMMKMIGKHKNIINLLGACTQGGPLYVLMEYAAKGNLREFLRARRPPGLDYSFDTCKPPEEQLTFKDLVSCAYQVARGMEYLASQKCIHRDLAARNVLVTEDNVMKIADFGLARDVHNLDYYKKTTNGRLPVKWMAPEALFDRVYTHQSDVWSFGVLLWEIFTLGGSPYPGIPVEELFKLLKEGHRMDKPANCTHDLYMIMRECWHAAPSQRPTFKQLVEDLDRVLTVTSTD

FGFR4 = molecular target: T6, FGFR4 (Homo sapiens, UniProt P22455); experiment: ADP-Glo kinase inhibition assay, FGFR4; assay type: biochemical; conditions: kinase activity, 10 μM ATP, n = 3
T6 construct: FGFR4 (residues 445−753); 6×His (N, cleaved yes); made in house; host or cells: E. coli BL21 (DE3), co-expressed with YOPH
T6 sequence (P22455 445-753): as the sequence (P22455 445-753 V550L) above, with L106V counted along it
Experimental: as §1, with “The purified proteins were concentrated to about 5–15 mg/mL and stored at −80 °C for subsequent studies.” left out
(§3) The ADP-Glo^TM Kinase Assay Kit (Part No #V9101) was purchased from Promega. […] Finally, […] was measured on a multimode plate reader (Perkin-Elmer) after the addition of detection reagent for half an hour to one hour. IC50 values were determined using a three-parameter log [Inhibitor] versus response model in GraphPad Prism software.

HCK = molecular target: T7, HCK (Homo sapiens, UniProt P08631); experiment: ADP-Glo kinase inhibition assay, HCK; assay type: biochemical; conditions: kinase activity, 10 μM ATP, n = 3
T7 construct: human HCK (residues 247−526); 6×His (N, cleaved yes); made in house; host or cells: E. coli BL21 (DE3), co-expressed with YOPH
T7 sequence (P08631 247-526): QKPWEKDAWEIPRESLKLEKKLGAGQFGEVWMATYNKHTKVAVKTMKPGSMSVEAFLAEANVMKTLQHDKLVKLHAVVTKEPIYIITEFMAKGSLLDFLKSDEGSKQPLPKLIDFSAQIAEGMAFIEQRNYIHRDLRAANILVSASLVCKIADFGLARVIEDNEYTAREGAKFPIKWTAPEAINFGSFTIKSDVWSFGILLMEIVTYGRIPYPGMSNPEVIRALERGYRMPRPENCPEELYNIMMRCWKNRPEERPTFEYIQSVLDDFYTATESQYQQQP
Experimental: as §1, with “The purified proteins were concentrated to about 5–15 mg/mL and stored at −80 °C for subsequent studies.” left out
as §3

YES = molecular target: T8, YES (Homo sapiens, UniProt P07947); experiment: ADP-Glo kinase inhibition assay, YES; assay type: biochemical; conditions: for IC50: kinase activity, ADP-Glo, 10 μM ATP, n = 3
T8 construct: purchased Carna 08-175
T8 sequence (P07947 whole entry): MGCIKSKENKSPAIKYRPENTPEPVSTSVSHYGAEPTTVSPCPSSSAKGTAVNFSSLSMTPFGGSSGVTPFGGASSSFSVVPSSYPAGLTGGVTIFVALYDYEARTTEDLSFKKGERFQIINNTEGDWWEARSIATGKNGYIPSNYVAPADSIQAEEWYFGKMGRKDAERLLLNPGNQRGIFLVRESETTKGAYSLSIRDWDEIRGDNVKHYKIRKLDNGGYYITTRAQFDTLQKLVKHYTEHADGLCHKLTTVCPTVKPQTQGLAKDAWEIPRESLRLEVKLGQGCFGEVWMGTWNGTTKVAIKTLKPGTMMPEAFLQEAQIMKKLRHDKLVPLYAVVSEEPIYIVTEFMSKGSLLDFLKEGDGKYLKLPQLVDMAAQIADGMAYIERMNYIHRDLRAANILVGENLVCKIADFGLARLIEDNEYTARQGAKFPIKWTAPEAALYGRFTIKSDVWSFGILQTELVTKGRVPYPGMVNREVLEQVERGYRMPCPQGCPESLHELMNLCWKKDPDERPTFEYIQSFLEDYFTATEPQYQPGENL
Experimental: as §1, §2

FGFR3 = molecular target: T9, FGFR3 (Homo sapiens, UniProt P22607); experiment: ADP-Glo kinase inhibition assay, FGFR3; assay type: biochemical; conditions: kinase activity, 10 μM ATP, n = 3
T9 construct: FGFR3 (residues 450−758); 6×His (N, cleaved yes); made in house; host or cells: E. coli BL21 (DE3), co-expressed with YOPH
T9 sequence (P22607 450-758): as the sequence (P22607 450-758 V555M) above, with M106V counted along it
Experimental: as §1, with “The purified proteins were concentrated to about 5–15 mg/mL and stored at −80 °C for subsequent studies.” left out
as §3

FGFR1(V561M) = molecular target: T10, FGFR1(V561M) (Homo sapiens, UniProt P11362, V561M); experiment: ADP-Glo kinase inhibition assay, FGFR1(V561M) gatekeeper mutant; assay type: biochemical; conditions: kinase activity, 10 μM ATP, n = 3
T10 construct: human FGFR1 (residues 456−765); 6×His (N, cleaved yes); made in house; host or cells: E. coli BL21 (DE3), co-expressed with YOPH
T10 sequence (P11362 456-765 V561M): as the sequence (P11362 456-765) above, with V106M counted along it

SRC [3] = molecular target: T4, SRC; experiment: MALDI-TOF MS covalent adduct formation, SRC; assay type: binding, chicken; conditions: protein:inhibitor 1:2, overnight, 4 °C
Experimental: as §1

SRC(C277A) = molecular target: T11, SRC(C277A) (Gallus gallus, UniProt P00523, C277A); experiment: ADP-Glo kinase inhibition assay, SRC(C277A); assay type: biochemical, chicken; conditions: for IC50: kinase activity, ADP-Glo, 10 μM ATP, n = 3
T11 construct: chicken SRC (residues 251−533); made in house; host or cells: E. coli BL21 (DE3), co-expressed with YOPH
Experimental: as §1, §2

FGFR2 = molecular target: T12, FGFR2 (Homo sapiens, UniProt P21802); experiment: ADP-Glo kinase inhibition assay, FGFR2; assay type: biochemical; conditions: kinase activity, 10 μM ATP, n = 3
T12 construct: FGFR2 (residues 453−770); 6×His (N, cleaved yes); made in house; host or cells: E. coli BL21 (DE3), co-expressed with YOPH
T12 sequence (P21802 453-770): as the sequence (P21802 453-770 V564F) above, with F112V counted along it

advanced solid tumors = conditions: pretreated patients with advanced solid tumors, phase 1 dose-escalation; cited from earlier work
[4] = kinase activity, ADP-Glo, 10 μM ATP, n = 3

Compound: CCN1CCN(c2ccc(Nc3cc(N(C)C(=O)Nc4c(Cl)c(OC)cc(OC)c4Cl)ncn3)cc2)CC1 [BGJ398, 3-(2,6-dichloro-3,5-dimethoxy-phenyl)-1-{6-[4-(4-ethyl-piperazin-1-yl)-phenylamino]-pyrimidin-4-yl}-1-methyl-urea]
potency against FGFR gatekeeper mutations (in words) [1]: little potency

fold decrease in potency, FGFR2(V564F) vs wild type (FGFR2(V564F); IC50 mutant relative to wild-type FGFR2): 95 fold
IC50 (FGFR2(V564F); [4]): 276 nM
fold decrease in potency, FGFR4(V550L) vs wild type (FGFR4(V550L); IC50 mutant relative to wild-type FGFR4): 12 fold
IC50 (FGFR4(V550L)): 255 nM
IC50 (FGFR1): 6.4 nM
IC50 (SRC [2]): 330 nM
fold reduction of potency, FGFR3(V555M) vs wild type (FGFR3(V555M); IC50 mutant relative to wild-type FGFR3): 15 fold
IC50 (FGFR3(V555M); [4]): 97 nM
IC50 (FGFR4): 21.1 nM
IC50 (HCK): > 5000 nM
IC50 (YES): 365 nM
IC50 (FGFR3): 6.7 nM
IC50 (FGFR1(V561M)): 216 nM
mass shift of SRC protein (covalent adduct) (SRC [3]): mass shifts were observed
IC50 (SRC(C277A)): > 5000 nM
potency against SRC(C277A) (in words) (SRC(C277A); kinase assay): lost their potency
IC50 (FGFR2): 2.9 nM
Compound: C=CC(=O)Nc1ccc(CN2C(=O)N(c3cc(OC)cc(OC)c3)Cc3cnc(Nc4ccc(N5CCN(C)CC5)cc4)nc32)cc1 [FIIN-2]

Compound: C=CC(=O)N1CCN(CCCn2c(=O)c(-c3c(Cl)c(OC)cc(OC)c3Cl)cc3cnc(NC)nc32)CC1 [PRN1371, 8-(3-(4-Acryloylpiperazin-1-yl)propyl)-6-(2,6-dichloro-3,5-dimethoxyphenyl)-2-(methylamino)pyrido[2,3-d]pyrimidin-7(8H)-one]
IC50 (FGFR4(V550L)): > 1000 nM
effect on FGFR4(V550L) (in words) (FGFR4(V550L); kinase assay): little effect
IC50 (SRC [2]): > 5000 nM
potency against SRC (in words) (SRC [2]; kinase assay): negligible potency
IC50 (FGFR4): 31.3 nM
IC50 (HCK): > 5000 nM
IC50 (YES): > 5000 nM
potency against YES (in words) (YES; kinase assay): negligible potency
potency against FGFR gatekeeper mutations (in words) [1]: little potency
IC50 (SRC(C277A)): > 5000 nM

Compound: C=CC(=O)N1CC[C@H](n2nc(C#Cc3cc(OC)cc(OC)c3)c3c(N)ncnc32)C1 [TAS-120]
most common adverse events (advanced solid tumors): hyperphosphatemia, diarrhea and constipation
